# “And” between values parts separate entries of the source, which are not always exact repeats. Equal entries are not always repeated. Where two headings read alike, the source gives them in different places.
# Columns and labels:
# [1] = molecular target: Human mTOR (FLAG-TOR) (Homo sapiens, UniProt P42345); assay: mTOR kinase assay (DELFIA format, purified enzyme); assay type: biochemical; settings: read-out: IC50 mTOR
# [2] = molecular target: PI3K-γ (Homo sapiens, UniProt P48736); assay: PI3K-gamma fluorescence polarization assay; settings: read-out: IC50 PI3Kγ
# Chain of PI3K-γ (P48736 whole entry, species assumed): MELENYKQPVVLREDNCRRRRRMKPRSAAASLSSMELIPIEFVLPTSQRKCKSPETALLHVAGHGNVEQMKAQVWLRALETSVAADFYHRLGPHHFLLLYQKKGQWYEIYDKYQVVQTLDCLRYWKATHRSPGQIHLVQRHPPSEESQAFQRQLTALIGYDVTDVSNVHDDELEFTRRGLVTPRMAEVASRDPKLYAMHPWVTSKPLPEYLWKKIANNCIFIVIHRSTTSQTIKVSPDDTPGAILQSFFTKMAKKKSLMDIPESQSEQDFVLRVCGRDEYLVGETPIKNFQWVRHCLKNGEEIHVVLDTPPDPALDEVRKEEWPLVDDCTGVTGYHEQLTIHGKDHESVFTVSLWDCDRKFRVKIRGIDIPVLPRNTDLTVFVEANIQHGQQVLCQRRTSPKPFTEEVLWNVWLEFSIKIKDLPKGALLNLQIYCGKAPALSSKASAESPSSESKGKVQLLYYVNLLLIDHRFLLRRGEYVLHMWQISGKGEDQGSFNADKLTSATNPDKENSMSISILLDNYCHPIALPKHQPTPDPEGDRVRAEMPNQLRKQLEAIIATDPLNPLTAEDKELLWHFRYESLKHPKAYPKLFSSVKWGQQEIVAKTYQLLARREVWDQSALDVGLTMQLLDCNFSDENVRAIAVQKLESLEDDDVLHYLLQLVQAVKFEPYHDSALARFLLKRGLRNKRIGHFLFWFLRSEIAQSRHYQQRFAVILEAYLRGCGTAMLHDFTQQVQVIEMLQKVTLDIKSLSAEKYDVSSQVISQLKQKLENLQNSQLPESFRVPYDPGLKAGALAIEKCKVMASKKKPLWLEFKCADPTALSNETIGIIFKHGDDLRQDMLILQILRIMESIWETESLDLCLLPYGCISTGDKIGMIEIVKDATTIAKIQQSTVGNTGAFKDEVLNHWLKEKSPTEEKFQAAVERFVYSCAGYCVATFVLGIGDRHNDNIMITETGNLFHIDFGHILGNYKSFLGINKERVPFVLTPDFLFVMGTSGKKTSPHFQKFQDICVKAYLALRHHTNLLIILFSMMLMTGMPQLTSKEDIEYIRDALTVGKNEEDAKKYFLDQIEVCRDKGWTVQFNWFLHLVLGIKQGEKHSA
# [3] = molecular target: PI3K-α (Homo sapiens, UniProt P42336); assay: PI3K-alpha fluorescence polarization assay; settings: read-out: IC50 PI3Kα
# Chain of PI3K-α (P42336 whole entry, species assumed): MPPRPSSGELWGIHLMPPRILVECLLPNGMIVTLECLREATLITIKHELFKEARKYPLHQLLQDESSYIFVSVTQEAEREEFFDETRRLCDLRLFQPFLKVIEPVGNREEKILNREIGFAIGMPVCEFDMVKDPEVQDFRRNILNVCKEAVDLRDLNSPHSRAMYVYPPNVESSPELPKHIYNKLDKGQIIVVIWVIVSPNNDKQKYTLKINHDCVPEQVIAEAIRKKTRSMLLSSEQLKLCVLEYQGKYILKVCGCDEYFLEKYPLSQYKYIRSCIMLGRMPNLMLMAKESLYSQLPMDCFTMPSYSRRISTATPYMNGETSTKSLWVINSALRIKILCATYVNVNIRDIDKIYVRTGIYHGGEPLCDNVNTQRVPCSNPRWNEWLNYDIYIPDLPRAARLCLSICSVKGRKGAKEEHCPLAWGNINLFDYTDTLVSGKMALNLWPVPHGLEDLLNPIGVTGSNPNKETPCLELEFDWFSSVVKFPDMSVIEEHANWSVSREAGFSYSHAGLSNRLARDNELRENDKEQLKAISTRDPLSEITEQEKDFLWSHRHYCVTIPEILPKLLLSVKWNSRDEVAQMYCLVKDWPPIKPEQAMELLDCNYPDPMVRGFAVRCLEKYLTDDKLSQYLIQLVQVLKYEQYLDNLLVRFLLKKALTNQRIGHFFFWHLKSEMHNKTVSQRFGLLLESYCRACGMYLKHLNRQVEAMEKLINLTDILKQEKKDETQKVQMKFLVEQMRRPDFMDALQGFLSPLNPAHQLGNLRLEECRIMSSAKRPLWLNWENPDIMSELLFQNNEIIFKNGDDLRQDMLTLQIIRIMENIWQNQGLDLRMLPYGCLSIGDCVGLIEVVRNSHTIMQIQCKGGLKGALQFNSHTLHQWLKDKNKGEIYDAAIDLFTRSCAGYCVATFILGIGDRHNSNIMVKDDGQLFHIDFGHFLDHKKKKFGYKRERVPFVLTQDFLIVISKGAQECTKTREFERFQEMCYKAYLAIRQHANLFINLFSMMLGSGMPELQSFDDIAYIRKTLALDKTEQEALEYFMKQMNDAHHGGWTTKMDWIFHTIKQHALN
# Chain of PI3K-α (P27986 whole entry partner, species assumed): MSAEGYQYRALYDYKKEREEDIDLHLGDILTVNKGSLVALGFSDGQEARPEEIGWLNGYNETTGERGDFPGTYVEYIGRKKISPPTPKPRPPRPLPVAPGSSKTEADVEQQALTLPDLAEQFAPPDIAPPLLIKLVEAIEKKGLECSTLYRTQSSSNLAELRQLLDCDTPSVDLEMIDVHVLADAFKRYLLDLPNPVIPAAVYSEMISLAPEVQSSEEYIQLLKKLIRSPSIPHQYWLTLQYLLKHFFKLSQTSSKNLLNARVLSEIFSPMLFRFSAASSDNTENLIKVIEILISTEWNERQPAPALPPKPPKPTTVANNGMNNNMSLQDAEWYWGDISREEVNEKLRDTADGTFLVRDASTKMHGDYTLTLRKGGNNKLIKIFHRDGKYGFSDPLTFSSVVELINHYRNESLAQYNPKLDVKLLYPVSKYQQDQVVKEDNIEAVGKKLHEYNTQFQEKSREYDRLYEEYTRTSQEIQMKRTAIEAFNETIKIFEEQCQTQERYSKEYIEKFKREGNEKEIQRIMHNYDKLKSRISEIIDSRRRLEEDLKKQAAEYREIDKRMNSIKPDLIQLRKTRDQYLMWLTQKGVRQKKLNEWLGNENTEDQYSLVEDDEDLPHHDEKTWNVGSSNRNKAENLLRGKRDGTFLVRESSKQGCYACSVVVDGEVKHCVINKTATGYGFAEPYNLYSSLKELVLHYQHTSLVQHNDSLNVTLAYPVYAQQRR
# [4] = tested on: human prostate PC3-mm2 tumor cell line; assay: In vitro cell culture growth assay (MTS), PC3-mm2; assay type: cell-based
# [5] = tested on: human breast MDA-MB-361 tumor cell line; assay: In vitro cell culture growth assay (MTS), MDA-MB-361; assay type: cell-based; settings: read-out: IC50 MDA-MB-361
# [6] = Homo sapiens, PC3MM2, 72 h, MTS cell growth assay, three days after drug treatment, read-out: IC50 PC3-mm2
# [7] = Homo sapiens, PC3MM2, 72 h, read-out: IC50 PC3-mm2
# [8] = MTS cell growth assay, three days after drug treatment, PC3-mm2 cells, read-out: IC50 PC3-mm2
# [9] = MTS cell growth assay, three days after drug treatment, MDA-MB-361 cells
# [10] = Homo sapiens, PC3MM2, 72 h, MTS cell growth assay, three days after drug treatment, PC3-mm2 cells, read-out: IC50 PC3-mm2
# [11] = Homo sapiens, PC3MM2, 72 h, PC3-mm2 cells, MTS, three days after drug treatment, read-out: IC50 PC3-mm2
# Chain of Human mTOR (FLAG-TOR) (P42345 1360-2549 limits assumed): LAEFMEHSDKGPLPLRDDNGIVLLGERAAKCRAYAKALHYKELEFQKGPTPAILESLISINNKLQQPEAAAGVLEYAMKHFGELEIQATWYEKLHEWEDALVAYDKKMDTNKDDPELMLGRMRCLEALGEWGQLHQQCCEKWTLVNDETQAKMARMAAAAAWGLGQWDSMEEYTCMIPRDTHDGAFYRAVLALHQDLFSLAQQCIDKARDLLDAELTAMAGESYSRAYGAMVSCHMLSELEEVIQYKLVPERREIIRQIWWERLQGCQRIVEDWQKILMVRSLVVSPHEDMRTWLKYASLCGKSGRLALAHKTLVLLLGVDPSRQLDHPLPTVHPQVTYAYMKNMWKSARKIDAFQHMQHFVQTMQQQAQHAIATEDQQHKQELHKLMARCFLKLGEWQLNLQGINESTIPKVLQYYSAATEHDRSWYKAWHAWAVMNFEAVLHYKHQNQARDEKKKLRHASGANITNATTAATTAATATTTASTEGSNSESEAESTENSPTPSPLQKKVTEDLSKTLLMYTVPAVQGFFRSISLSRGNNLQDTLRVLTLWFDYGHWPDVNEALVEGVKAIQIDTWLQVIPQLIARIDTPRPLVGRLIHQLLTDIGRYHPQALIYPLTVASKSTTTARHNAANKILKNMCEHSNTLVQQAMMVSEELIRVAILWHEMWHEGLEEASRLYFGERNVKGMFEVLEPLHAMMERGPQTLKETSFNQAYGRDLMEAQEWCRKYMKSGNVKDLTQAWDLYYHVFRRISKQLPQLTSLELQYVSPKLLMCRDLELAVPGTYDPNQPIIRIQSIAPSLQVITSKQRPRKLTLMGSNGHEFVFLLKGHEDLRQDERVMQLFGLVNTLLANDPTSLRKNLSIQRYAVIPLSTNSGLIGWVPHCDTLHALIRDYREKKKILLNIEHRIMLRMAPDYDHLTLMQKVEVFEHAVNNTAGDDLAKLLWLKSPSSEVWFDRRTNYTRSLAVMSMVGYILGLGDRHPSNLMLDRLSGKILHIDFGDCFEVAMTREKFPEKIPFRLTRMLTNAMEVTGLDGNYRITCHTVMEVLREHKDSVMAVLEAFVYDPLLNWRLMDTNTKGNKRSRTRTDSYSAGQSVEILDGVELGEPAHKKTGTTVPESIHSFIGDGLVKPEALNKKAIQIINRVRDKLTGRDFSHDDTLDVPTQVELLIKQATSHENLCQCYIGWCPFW
Compound,IC50 [1],IC50 [2],IC50 [3],"IC50 [4, 6]",also measured
"CCCCc1nc(-c2ccc(NC(=O)Nc3ccc(C(=O)Nc4ccc(OCCN(C)C)cc4)cc3)cc2)nc(N2CCOCC2)n1 [Example 269, 4-({[4-(4-butyl-6-morpholin-4-yl-1,3,5-triazin-2-yl)phenyl]carbamoyl}amino)-N-{4-[2-(dimethylamino)ethoxy]phenyl}benzamide]",0.08 µM,0.14 µM,0.006 µM,0.144 µM,–
"CNCCN(C)C(=O)c1ccc(NC(=O)Nc2ccc(-c3nc(OC)nc(N4CCOCC4)n3)cc2)cc1 [Example 245, 4-({[4-(4-methoxy-6-morpholin-4-yl-1,3,5-triazin-2-yl)phenyl]carbamoyl}amino)-N-methyl-N-[2-(methylamino)ethyl]benzamide]",–,–,0.001 µM,–,"IC50 ([3]; listed as 722): 0.0008 µM; IC50 ([5]; Homo sapiens, MDA-MB-361, 72 h): 0.11 µM; IC50 [4, 7]: 0.374 µM"
"N-[2-(dimethylamino)ethyl]-4-({[4-(4-morpholin-4-yl-6-piperidin-1-yl-1,3,5-triazin-2-yl)phenyl]carbamoyl}amino)benzamide [Example 601]",0.003 µM,0.0575 µM,0.0035 µM,–,"IC50 [4, 8]: 0.155 µM"
1-(4-{[(3S)-3-(dimethylamino)pyrrolidin-1-yl]carbonyl}phenyl)-3-{4-[4-morpholin- [Example 517],0.00106 µM,0.0185 µM,0.0034 µM,–,"IC50 [4, 8]: 0.007 µM"
"CNC(=O)c1ccc(NC(=O)Nc2ccc(-c3nc(N4CCOCC4)nc(N4CCOCC4)n3)cc2)cc1 [Example 70, 4-(3-(4-(4,6-dimorpholino-1,3,5-triazin-2-yl)phenyl)ureido)-N-methylbenzamide]",0.0007 µM,–,–,–,"IC50 ([4]; Homo sapiens, PC3MM2, 72 h, read-out: IC50 PC3-mm2, MTS cell growth assay, three days after drug treatment): 0.024 µM"
"4-{[(4-{4-morpholin-4-yl-6-[(3S)-tetrahydrofuran-3-yloxy]-1,3,5-triazin-2-yl}phenyl)carbamoyl]amino}-N-(2-pyrrolidin-1-ylethyl)benzamide [Example 521]",–,–,0.0014 µM,–,"IC50 [5, 9]: 0.008 µM; IC50 [4, 8]: 0.027 µM"
"COc1nc(-c2ccc(NC(=O)Nc3ccc(C(=O)N4CCNC(C)(C)C4)cc3)cc2)nc(N2CCOCC2)n1 [Example 247, 1-{4-[(3,3-dimethylpiperazin-1-yl)carbonyl]phenyl}-3-[4-(4-methoxy-6-morpholin-4-yl-1,3,5-triazin-2-yl)phenyl]urea]",–,–,0.002 µM,–,"IC50 ([3]; listed as 724): 0.0015 µM; IC50 ([5]; Homo sapiens, MDA-MB-361, 72 h): 0.03 µM; IC50 [4, 7]: 0.111 µM"
"O=C(Nc1ccncc1)Nc1ccc(-c2nc(N3CCCCC3)nc(N3CC4CCC(C3)O4)n2)cc1 [Example 79, 1-(4-(4-(8-oxa-3-azabicyclo[3.2.1]octan-3-yl)-6-(piperidin-1-yl)-1,3,5-triazin-2-yl)phenyl)-3-(pyridin-4-yl)urea]",0.0051 µM,0.193 µM,0.773 µM,0.32 µM,–
"CCc1nc(-c2ccc(NC(=O)Nc3ccc(C(=O)Nc4ccc(N5CCN(C)CC5)cc4)cc3)cc2)nc(N2CCOCC2)n1 [Example 251, 4-({[4-(4-ethyl-6-morpholin-4-yl-1,3,5-triazin-2-yl)phenyl]carbamoyl}amino)-N-[4-(4-methylpiperazin-1-yl)phenyl]benzamide]",0.006 µM,0.021 µM,0.002 µM,0.065 µM,–
"CCCCc1nc(-c2ccc(NC(=O)Nc3ccc(C(=O)N(C)CCN(C)C)cc3)cc2)nc(N2CCOCC2)n1 [Example 198, 4-({[4-(4-butyl-6-morpholin-4-yl-1,3,5-triazin-2-yl)phenyl]carbamoyl}amino)-N-[2-(dimethylamino)ethyl]-N-methylbenzamide]",0.002 µM,0.033 µM,0.002 µM,0.043 µM,–
"CN(C)C1CCN(C(=O)c2ccc(NC(=O)Nc3ccc(-c4nc(-c5cccs5)nc(N5CCOCC5)n4)cc3)cc2)CC1 [Example 568, 1-(4-{[4-(dimethylamino)piperidin-1-yl]carbonyl}phenyl)-3-{4-[4-morpholin-4-yl-6-(2-thienyl)-1,3,5-triazin-2-yl]phenyl}urea]",0.01 µM,–,0.0035 µM,–,"IC50 [4, 10]: 0.107 µM"
"O=C(Nc1ccc(C(=O)N2CCC(N3CCCCC3)CC2)cc1)Nc1ccc(-c2nc(N3CCOCC3)nc(N3C4CCC3COC4)n2)cc1 [Example 760, 1-[4-(1,4′-bipiperidin-1′-ylcarbonyl)phenyl]-3-{4-[4-morpholin-4-yl-6-(3-oxa-8-azabicyclo[3.2.1]oct-8-yl)-1,3,5-triazin-2-yl]phenyl}urea]",0.00021 µM,0.0283 µM,0.0043 µM,–,"IC50 [4, 10]: 0.004 µM"
"CN1CCN(C(=O)c2ccc(NC(=O)Nc3ccc(-c4nc(N5CCOCC5)[nH]c(=O)n4)cc3)cc2)CC1 [Example 826, 1-{4-[(4-methylpiperazin-1-yl)carbonyl]phenyl}-3-[4-(6-morpholin-4-yl-4-oxo-4,5-dihydro-1,3,5-triazin-2-yl)phenyl]urea]",–,–,0.015 µM,–,"IC50 ([5]; Homo sapiens, MDA-MB-361, 72 h): > 1 µM; IC50 [4, 11]: > 1 µM"
"O=C(Nc1ccc(C(=O)NCCN2CCCCC2)cc1)Nc1ccc(-c2nc(N3CCOCC3)nc(N3CCOCC3)n2)cc1 [Example 151, 4-({[4-(4,6-dimorpholin-4-yl-1,3,5-triazin-2-yl)phenyl]carbamoyl}amino)-N-(2-piperidin-1-ylethyl)benzamide]",0.007 µM,8.12 µM,0.0006 µM,0.014 µM,–
"1-(4-{[4-(dimethylamino)piperidin-1-yl]carbonyl}phenyl)-3-[4-(4-morpholin-4-yl-6-phenyl-1,3,5-triazin-2-yl)phenyl]urea [Example 544]",0.017 µM,0.0205 µM,0.0035 µM,–,"IC50 [5, 9]: 0.058 µM"
"CN(C)C1CCN(C(=O)c2ccc(NC(=O)Nc3ccc(-c4nc(N5CCOCC5)nc(N5CCOCC5)n4)cc3)cc2)C1 (centres unmarked) [Example 167, 1-(4-{[3-(dimethylamino)pyrrolidin-1-yl]carbonyl}phenyl)-3-[4-(4,6-dimorpholin-4-yl-1,3,5-triazin-2-yl)phenyl]urea]",0.00068 µM,–,0.0008 µM,0.01 µM,–
"O=C(Nc1ccncc1)Nc1ccc(-c2nc(N3CCCC3)nc(N3CC4CCC(C3)O4)n2)cc1 [Example 80, 1-(4-(4-(8-oxa-3-azabicyclo[3.2.1]octan-3-yl)-6-(pyrrolidin-1-yl)-1,3,5-triazin-2-yl)phenyl)-3-(pyridin-4-yl)urea]",0.00715 µM,2.12 µM,0.851 µM,0.32 µM,–
"CC(C)Cc1nc(-c2ccc(NC(=O)Nc3ccc(C(=O)N4CCC(N(C)C)CC4)cc3)cc2)nc(N2CCOCC2)n1 [Example 323, 1-(4-{[4-(dimethylamino)piperidin-1-yl]carbonyl}phenyl)-3-{4-[4-(2-methylpropyl)-6-morpholin-4-yl-1,3,5-triazin-2-yl]phenyl}urea]",0.007 µM,0.032 µM,0.0029 µM,0.077 µM,–
"CC(C)c1nc(-c2ccc(NC(=O)Nc3ccc(C(=O)N4CCN(C)CC4)cc3)cc2)nc(N2CCOCC2)n1 [Example 304, 1-{4-[4-(1-methylethyl)-6-morpholin-4-yl-1,3,5-triazin-2-yl]phenyl}-3-{4-[(4-methylpiperazin-1-yl)carbonyl]phenyl}urea]",0.0025 µM and 0.0045 µM,–,0.002 µM,0.0393 µM,"IC50 ([3]; listed as 486): 0.0011 µM; IC50 [4, 10]: 0.0393 µM"
"CC(C)c1nc(-c2ccc(NC(=O)Nc3ccc(C(=O)NC4CN(C)C4)cc3)cc2)nc(N2CCOCC2)n1 [Example 307, N-(1-methylazetidin-3-yl)-4-[({4-[4-(1-methylethyl)-6-morpholin-4-yl-1,3,5-triazin-2-yl]phenyl}carbamoyl)amino]benzamide]",0.0028 µM,0.03 µM,0.003 µM,0.362 µM,–
"O=C(Nc1ccncc1)Nc1ccc(-c2nc(N3CCOCC3)nc(N3CC4CCC3CO4)n2)cc1 (centres unmarked) [Example 807, 1-{4-[4-morpholin-4-yl-6-(2-oxa-5-azabicyclo[2.2.2]oct-5-yl)-1,3,5-triazin-2-yl]phenyl}-3-pyridin-4-ylurea]",–,–,–,–,"IC50 ([5]; Homo sapiens, 72 h, MDA-MB-361 cells, MTS, three days after drug treatment): 0.035 µM; IC50 [4, 11]: 0.037 µM"
"COc1nc(-c2ccc(NC(=O)Nc3ccc(C(=O)N4CCN(C)CC4)cc3)cc2)nc(N2CCOCC2)n1 [Example 246, 1-[4-(4-methoxy-6-morpholin-4-yl-1,3,5-triazin-2-yl)phenyl]-3-{4-[(4-methylpiperazin-1-yl)carbonyl]phenyl}urea]",–,–,–,–,"IC50 ([5]; Homo sapiens, MDA-MB-361, 72 h): 0.035 µM; IC50 [4, 7]: 0.091 µM"
"CN(C)CCN(C)C(=O)Nc1ccc(NC(=O)Nc2ccc(-c3nc(N4CCOCC4)nc(N4CCOCC4)n3)cc2)cc1 [Example 500, 1-[2-(dimethylamino)ethyl]-3-[4-({[4-(4,6-dimorpholin-4-yl-1,3,5-triazin-2-yl)phenyl]carbamoyl}amino)phenyl]-1-methylurea]",0.00109 µM,0.01 µM,0.0004 µM,–,"IC50 ([5]; Homo sapiens, 72 h, MTS cell growth assay, three days after drug treatment, MDA-MB-361 cells): 0.001 µM"

# — US20090304692A1, “TRIAZINE COMPOUNDS AS PI3 KINASE AND MTOR INHIBITORS” (Wyeth, priority 2008, published 2009)
